Source: patent US9499599B2, “Composition and methods for stimulating gastrointestinal motility” (Ipsen Pharma S.A.S., priority 2005, dated 2016)
Non-standard residues stand in square brackets, D forms with d. Residues, ends and D or L forms follow the SMILES beside them. No end group written: not given here. Ala(4-thiazolyl) = N[C@@H](Cc1cscn1)C(=O)O; d2Nal = N[C@H](Cc1ccc2ccccc2c1)C(=O)O; dBta = N[C@H](Cc1csc2ccccc12)C(=O)O; Api = NC1(C(=O)O)CCNCC1; Inp = O=C(O)C1CCNCC1

Experiments:
[1] = target: T1, human recombinant GHS receptor (Homo sapiens, UniProt Q92847); experiment: GHS-receptor binding assay, (125I)ghrelin displacement; conditions: 0.05 nM (125I)ghrelin, membranes of CHO-K1 cells expressing human recombinant GHS receptor, 60 min at 4° C.
T1 construct: The full length human GHS-R was subcloned into the mammalian expression vector pcDNA 3.1; expressed in transfected cells; membrane homogenates used
Description: Membranes for radioligand binding studies can be and were prepared by homogenization of the foregoing CHO-K1 cells expressing the human recombinant GHS receptor. The cells were homogenized in 20 ml of ice-cold 50 mM Tris-HCl using a Brinkman Polytron® (Westbury, N.Y.; setting 6, 15 sec). The homogenates were washed twice by centrifugation (39,000 g/10 min) and the final pellets were resuspended in 50 mM Tris-HCl containing 2.5 mM MgCl2 and 0.1% bovine serum albumin (BSA).

[2] = test system: male Sprague Dawley rats; experiment: Effect on POI in rat (laparotomy-induced gastric ileus), gastric emptying; assay type: in vivo; conditions: 3 centimeter laparotomy, administered subcutaneously
[3] = test system: male Sprague Dawley rats; experiment: In vivo gastric emptying, intravenous administration, phenol red meal; parameters: species or system rat; conditions: fasted anesthetized rats, administered intravenously
Description: Selected compounds of the invention can be and were tested to determine the effect of the compounds upon gastric emptying. […] Native ghrelin, the selected ghrelin analog and a metoclopramide control compound were administered intravenously to anesthetized test subjects. Approximately five minutes after the initial administration of native ghrelin, the selected ghrelin analog or the control compound, a 1.5 ml meal marked with phenol red (0.5 mg/ml phenol red and 1.5% methyl cellulose in whole milk) was administered to each test subject by esophageal gavage. After approximately an additional 20 minutes, the test subjects were sacrificed by cervical rupture and the stomachs removed and individually pulverized. The residual phenol red in the stomach of the test subjects was extracted and was measured spectrophometrically at a wavelength of 560 nm.

[4] = test system: rats; experiment: In vivo study on intestinal transit, charcoal meal; parameters: species or system rat; conditions: fasted anesthetized rats, charcoal meal by esophageal gavage
Description: In the study, groups of eight rats were fasted for approximately 24 hours with free access to water. Anesthetized test subjects were administered native ghrelin, the selected analog and atropine as a control. The test subjects were administered a 2 ml charcoal meal by esophageal gavage approximately five minutes after the initial administration of ghrelin, the selected analog or atropine. After approximately an additional 25 minutes, the test subjects were sacrificed by cervical rupture and the small intestines were removed. The distance the charcoal traveled was measured from the pylorus.

[5] = test system: male Sprague Dawley rats; experiment: In vivo gastric emptying, subcutaneous administration, phenol red meal; parameters: species or system rat; conditions: fasted rats, injected subcutaneously, varying doses
Description: The animals were injected subcutaneously with either vehicle or varying doses of native ghrelin or selected ghrelin analogs. After approximately 15 minutes, 1.5 ml of a phenol red marked nutrient meal (0.5 mg/ml phenol red & 1.5% methyl cellulose in whole milk) was administered orally to the rats. […] The residual phenol red in the stomach was extracted and measured by spectrophotometric methods at a wavelength of 560 nm. […] (see Figures)

[6] = test system: rats; conditions: cited from earlier work
[7] = test system: laparectomized dogs; conditions: cited from earlier work
[8] = test system: septic mice; conditions: cited from earlier work
[9] = test system: rats; conditions: post-operative ileus model; cited from earlier work
[10] = test system: Ferrets; conditions: ferrets exposed to cisplatin, intracerebroventricular administration; cited from earlier work
[11] = test system: mice; conditions: cited from earlier work
[12] = test system: patients with diabetic gastroparesis; conditions: cited from earlier work

T1 sequence (Q92847 whole entry): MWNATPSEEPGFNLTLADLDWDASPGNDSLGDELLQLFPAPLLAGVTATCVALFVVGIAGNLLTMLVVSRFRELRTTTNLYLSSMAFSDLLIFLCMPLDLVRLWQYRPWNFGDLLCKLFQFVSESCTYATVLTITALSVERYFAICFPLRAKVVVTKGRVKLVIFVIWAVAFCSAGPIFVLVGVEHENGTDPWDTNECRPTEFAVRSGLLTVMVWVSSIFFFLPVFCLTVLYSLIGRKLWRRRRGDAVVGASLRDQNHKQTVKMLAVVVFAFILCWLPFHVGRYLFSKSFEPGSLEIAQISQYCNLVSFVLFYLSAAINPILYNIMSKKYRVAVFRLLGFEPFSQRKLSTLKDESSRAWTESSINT

| Molecule | Ki [1] | effect on gastric emptying under post-operative ileus conditions [2] | effect on gastric emptying (residual phenol red in stomach) [3] | effect on intestinal transit (distance the charcoal traveled from the pylorus) [4] | effect on gastric emptying (residual phenol red in stomach) [5] | effect on gastric emptying [6] | effect on gastric emptying [8] | effect on transit in the small intestine [8] | effect on gastric emptying [11] | other results |
| --- | --- | --- | --- | --- | --- | --- | --- | --- | --- | --- |
| NCCCC[C@H](NC(=O)[C@H](Cc1ccccc1)NC(=O)[C@@H](Cc1c[nH]c2ccccc12)NC(=O)[C@@H](Cc1ccc2ccccc2c1)NC(=O)C1CCNCC1)C(N)=O [Example #2, Inp-D-2-Nal-D-Trp-Phe-Lys-NH2] (HELM PEPTIDE1{[O=C(C1CCNCC1)[*:2]].[O=C([C@@H](Cc1ccc2ccccc2c1)N[*:1])[*:2]].[dW].F.K.[am]}$$$$V2.0) | 300 pM |  |  |  |  |  |  |  |  |  |
| NC(=O)C1(NC(=O)[C@H](Cc2ccccc2)NC(=O)[C@@H](Cc2c[nH]c3ccccc23)NC(=O)[C@@H](Cc2csc3ccccc23)NC(=O)C2CCNCC2)CCNCC1 [Example #19, H-Inp-D-Bal-D-Trp-Phe-Apc-NH2] (H-[Inp][dBta][dW]F[Api]-NH2) |  | significantly accelerated gastric emptying | accelerated gastric emptying | accelerated gastric intestinal transit | accelerated gastric emptying |  |  |  |  |  |
| NCCCC[C@H](NC(=O)[C@H](Cc1cscn1)NC(=O)[C@@H](Cc1c[nH]c2ccccc12)NC(=O)[C@@H](Cc1ccc2ccccc2c1)NC(=O)C1CCNCC1)C(N)=O [Example #37, H-Inp-D-2-Nal-D-Trp-Taz-Lys-NH2] (H-[Inp][d2Nal][dW][Ala(4-thiazolyl)]K-NH2) | 800 pM |  |  |  |  |  |  |  |  |  |
| H-Gly-Ser-Ser-Phe-Leu-Ser-Pro-Glu-His-Gln-Arg-Val-Gln-Gln-Arg-Lys-Glu-Ser-Lys-Lys-Pro-Pro-Ala-Lys-Leu-Gln-Pro-Arg-NH2 (H-GSSFLSPEHQRVQQRKESKKPPAKLQPR-NH2) [ghrelin, orexigenic hormone, native ligand for the GHS receptor] |  | significantly accelerated gastric emptying | accelerated gastric emptying | accelerated gastric intestinal transit | accelerated gastric emptying | accelerate gastric emptying | accelerated gastric emptying | little effect upon increasing transit in the small intestine | accelerate gastric emptying | effect on POI [7]: improve POI; effect on delay of gastric emptying [9]: reverse the delay of gastric emptying; occurrences of retching and vomiting [10]: significantly reduced occurrences of retching and vomiting; effect on gastric emptying [12]: increase gastric emptying |
| His-D-Trp-Ala-Trp-D-Phe-Lys-amide (H[dW]AW[dF]K-NH2) [GHRP-6] |  |  |  |  |  | accelerate gastric emptying | accelerated gastric emptying | little effect upon increasing transit in the small intestine | accelerate gastric emptying |  |
